Assay results taken from patent US9221822B2, “Thiazolopyrimidine modulators as immunosuppressive agents” (Katholieke Universiteit Leuven, K.U.Leuven R&D, priority 2009, dated 2015).

System: Human peripheral blood mononuclear cells (PBMCs) as Responder cells, RPMI 1788 Stimulator cells
Assay: Mixed Lymphocyte Reaction (MLR) test
Type: cell-based
Conditions: Homo sapiens, RPMI-1788, lowest concentration giving 50% inhibition of the MLR; 6 days coculture, 3H-thymidine incorporation
In short: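 Human PBMC responders (0.12×10^6) were cocultured 6 days with mitomycin C-treated RPMI 1788 stimulators (0.045×10^6) and compound in RPMI 1640 with 10% FCS, in triplicate. A ^3H-thymidine pulse on day 5, harvested 18 h later, measured proliferation (cpm), converted to % inhibition versus a compound-free MLR.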

Compound | IC50 [nM]
Nc1nc(N2CCN(C(=O)CCc3ccccc3)CC2)c2nc(CCc3ccc(F)cc3)sc2n1 [Example 136, 5-amino-2-[2-(4-fluorophenyl)ethyl]-7-[4-(3-phenylpropionyl)piperazin-1-yl]-thiazolo[5,4-d]pyrimidine] | > 10000
Nc1nc(N2CCN(C(=O)COc3ccc(Cl)cc3)CC2)c2cc(-c3ccccc3)sc2n1 [Example 329, 1-(4-(2-amino-6-phenylthieno[2,3-d]pyrimidin-4-yl)piperazin-1-yl)-2-(4-chlorophenoxy)ethanone] | 330
CCCCc1nc(N2CCN(C(=O)COc3ccc(Cl)cc3)CC2)c2cc(-c3ccc(F)cc3)sc2n1 [Example 313, 1-(4-(2-butyl-6-(4-fluorophenyl)thieno[2,3-d]pyrimidin-4-yl)piperazin-1-yl)-2-(4-chlorophenoxy)ethanone] | 1330
COc1cccc(C(=O)N2CCN(c3nc(N)nc4[nH]c(-c5ccc(F)cc5)nc34)CC2)c1 [Example 402, (4-(2-amino-8-(4-fluorophenyl)-9H-purin-6-yl)piperazin-1-yl)(3-methoxyphenyl)methanone] | > 10000
COCCOc1nc(N)nc2sc(-c3ccc(F)cc3)nc12 [Example 29, 2-(4-fluorophenyl)-7-(2-methoxyethoxy)-thiazolo[5,4-d]pyrimidin-5-amine] | > 10000
Cc1cccc(N2CCN(c3nc(N)nc4sc(-c5ccc(F)cc5)nc34)CC2)c1 [Example 35, 2-(4-fluorophenyl)-7-(4-m-tolylpiperazin-1-yl)-thiazolo[5,4-d]pyrimidin-5-amine] | > 10000
Nc1nc(N2CCN(C(=O)COc3ccc(Cl)cc3)CC2)c2nc(C3(c4ccc(Cl)cc4)CC3)sc2n1 [Example 117, 5-amino-7-[4-(4-chlorophenoxyacetyl)piperazin-1-yl]-2-(1-(4-chlorophenyl)cyclopropyl)thiazolo[5,4-d]pyrimidine] | 2510
Cc1ccc(-c2nc3c(N4CCN(C(=O)COc5ccc(Cl)cc5)CC4)nc(N)nc3s2)cc1 [Example 295, 1-(4-(5-amino-2-p-tolylthiazolo[5,4-d]pyrimidin-7-yl)piperazin-1-yl)-2-(4-chlorophenoxy)ethanone] | 350
Cc1cccc(NC(=O)N2CCN(c3nc(N)nc4sc(-c5ccccc5)cc34)CC2)c1 [Example 330, 4-(2-amino-6-phenylthieno[2,3-d]pyrimidin-4-yl)-N-m-tolylpiperazine-1-carboxamide] | 930
Nc1nc(N2CCN(C(=O)COc3ccc(Cl)cc3)CC2)c2cc(-c3ccc(F)cc3)sc2n1 [Example 326, 1-(4-(2-amino-6-(4-fluorophenyl)thieno[2,3-d]pyrimidin-4-yl)piperazin-1-yl)-2-(4-chlorophenoxy)ethanone] | 700
Nc1nc(N2CCCN(C(=O)COc3ccc(Cl)cc3)CC2)c2nc(-c3ccc(F)cc3)[nH]c2n1 [Example 421, 1-(4-(2-amino-8-(4-fluorophenyl)-9H-purin-6-yl)-1,4-diazepan-1-yl)-2-(4-chlorophenoxy)ethanone] | 3710
Cc1cccc(OCC(=O)N2CCN(c3nc(N)nc4sc(-c5cccnc5)nc34)CC2)c1 [Example 275, 1-(4-(5-amino-2-(pyridin-3-yl)thiazolo[5,4-d]pyrimidin-7-yl)piperazin-1-yl)-2-(m-tolyloxy)ethanone] | 3
Nc1nc(N2CCN(CC(=O)Nc3ccccn3)CC2)c2nc(-c3ccc(F)cc3)[nH]c2n1 [Example 416, 2-(4-(2-amino-8-(4-fluorophenyl)-9H-purin-6-yl)piperazin-1-yl)-N-(pyridin-2-yl)acetamide] | 5760
Nc1nc(N2CCN(C(=O)COc3ccc(Cl)cc3)CC2)c2nc(-c3ccc(Cl)cc3)sc2n1 [Example 123, 5-amino-7-[4-(4-chlorophenoxyacetyl)piperazin-1-yl]-2-(4-chlorophenyl)thiazolo[5,4-d]pyrimidine] | 260
Nc1nc(N2CCN(C(=O)CCc3ccccc3)CC2)c2cc(-c3ccc(F)cc3)sc2n1 [Example 343, 1-(4-(2-amino-6-(4-fluorophenyl)thieno[2,3-d]pyrimidin-4-yl)piperazin-1-yl)-3-phenylpropan-1-one] | 6990
Nc1nc(N2CCN(C(=O)COc3ccc(Cl)cc3)CC2)c2nc(C3CC3)oc2n1 [Example 185, 5-amino-2-cyclopropyl-7-[4-(4-chlorophenoxyacetyl)piperazin-1-yl]-oxazolo[5,4-d]pyrimidine] | 1760
O=C(COc1ccc(Cl)cc1)N1CCN(c2ncnc3sc(-c4ccc(F)cc4)nc23)CC1 [Example 301, 1-(4-(2-(4-fluorophenyl)thiazolo[5,4-d]pyrimidin-7-yl)piperazin-1-yl)-2-(4-chlorophenoxy)ethanone] | 670

Compound | IC50 [nM]
COc1ccc(-c2nc3c(N4CCN(C(=O)COc5ccc(Cl)cc5)CC4)nc(N)nc3[nH]2)cc1OC [Example 390, 1-(4-(2-amino-8-(3,4-dimethoxyphenyl)-9H-purin-6-yl)piperazin-1-yl)-2-(4-chlorophenoxy)ethanone] | 530
Nc1nc(N2CCN(C(=O)COc3ccc(Cl)cc3)CC2)c2nc(-c3cccc(Cl)c3)[nH]c2n1 [Example 393, 1-(4-(2-amino-8-(3-chlorophenyl)-9H-purin-6-yl)piperazin-1-yl)-2-(4-chlorophenoxy)ethanone] | 660
CC(C)(Oc1ccc(Cl)cc1)C(=O)N1CCN(c2nc(N)nc3sc(-c4ccccc4)cc23)CC1 [Example 373, 1-(4-(2-amino-6-phenylthieno[2,3-d]pyrimidin-4-yl)piperazin-1-yl)-2-(4-chlorophenoxy)-2-methylpropan-1-one] | 6920
Nc1nc(N2CCN(C(=O)Cc3cccs3)CC2)c2nc(-c3ccc(F)cc3)[nH]c2n1 [Example 403, 1-(4-(2-amino-8-(4-fluorophenyl)-9H-purin-6-yl)piperazin-1-yl)-2-(thiophen-2-yl)ethanone] | 7080
CC(=O)N1CCN(c2nc(N)nc3oc(-c4ccc(F)cc4)nc23)CC1 [Example 191, 5-amino-2-(4-fluorophenyl)-7-(4-acetylpiperazin-1-yl)-oxazolo[5,4-d]pyrimidine] | > 10000
Nc1nc(N2CCN(C(=O)COc3ccc(Cl)cc3)CC2)c2nc(CCc3ccccc3)oc2n1 [Example 189, 5-amino-2-(2-phenylethyl)-7-[4-(4-chlorophenoxyacetyl)piperazin-1-yl]oxazolo[5,4-d]pyrimidine] | 5530
CSc1nc2c(N3CCN(C(=O)COc4ccc(Cl)cc4)CC3)nc(N)nc2[nH]1 [Example 424, 1-(4-(2-amino-8-(methylthio)-9H-purin-6-yl)piperazin-1-yl)-2-(4-chlorophenoxy)ethanone] | 610
Nc1nc(N2CCN(C(=O)Cc3ccc(Cl)cc3)CC2)c2nc(CCc3cccs3)sc2n1 [Example 155, 5-amino-2-(2-thiophen-2-ylethyl)-7-(4-[2-(4-chloro-phenyl)acetyl]piperazin-1-yl)thiazolo[5,4-d]pyrimidine] | > 10000
CC(C)(Oc1ccc(Cl)cc1)C(=O)N1CCN(c2nc(N)nc3sc(-c4cccnc4)nc23)CC1 [Example 274, 1-(4-(5-amino-2-(pyridin-3-yl)thiazolo[5,4-d]pyrimidin-7-yl)piperazin-1-yl)-2-(4-chlorophenoxy)-2-methylpropan-1-one] | > 10000
CCCCCc1nc2c(N3CCN(C(=O)COc4ccc(OC)cc4)CC3)nc(N)nc2s1 [Example 296, 1-(4-(5-amino-2-pentylthiazolo[5,4-d]pyrimidin-7-yl)piperazin-1-yl)-2-(4-methoxyphenoxy)ethanone] | 7590
Nc1nc(N2CCN(c3ccc(F)cc3)CC2)c2nc(-c3ccc(F)cc3)[nH]c2n1 [Example 415, 8-(4-fluorophenyl)-6-(4-(4-fluorophenyl)piperazin-1-yl)-9H-purin-2-amine] | 4160
Nc1nc(N2CCCN(C(=O)COc3ccc(Cl)cc3)CC2)c2nc(CCc3ccc(F)cc3)sc2n1 [Example 138, 5-amino-2-[2-(4-fluorophenyl)ethyl]-7-(4-[2-(4-chlorophenoxy)acetyl]homopiperazin-1-yl)-thiazolo[5,4-d]pyrimidine] | 2100
Nc1nc(N2CCN(C(=O)COc3ccc(OC(F)(F)F)cc3)CC2)c2nc(-c3cccnc3)sc2n1 [Example 273, 1-(4-(5-amino-2-(pyridin-3-yl)thiazolo[5,4-d]pyrimidin-7-yl)piperazin-1-yl)-2-(4-trifluoromethoxyphenoxy)ethanone] | 45
Nc1nc(N2CCN(C(=O)COc3ccc(Cl)cc3)CC2)c2nc(CCc3ccc(F)cc3)sc2n1 [Example 49, 1-(4-(5-amino-2-(4-fluorophenethyl)-thiazolo[5,4-d]pyrimidin-7-yl)piperazin-1-yl)-2-(4-chlorophenoxy)ethanone] | 4400
COc1cccc(CCc2nc3c(N4CCN(C(=O)COc5ccc(Cl)cc5)CC4)nc(N)nc3s2)c1 [Example 255, 1-(4-(5-amino-2-(3-methoxyphenethyl)thiazolo[5,4-d]pyrimidin-7-yl)piperazin-1-yl)-2-(4-chlorophenoxy)ethanone] | 710
Nc1nc(N2CCN(C(=O)COc3ccc(Cl)cc3)CC2)c2nc(-c3ccc(Cl)c(Cl)c3)sc2n1 [Example 116, 5-amino-7-[4-(4-chlorophenoxyacetyl)piperazin-1-yl]-2-(3,4-dichlorophenyl)thiazolo[5,4-d]pyrimidine] | 5290
Nc1nc(N2CCN(CC(=O)NCCc3ccccc3)CC2)c2nc(CCc3ccc(F)cc3)sc2n1 [Example 141, 5-amino-2-[2-(4-fluorophenyl)ethyl]-7-(4-(phenethylcarbamoyl-methyl)piperazin-1-yl)-thiazolo[5,4-d]pyrimidine] | 1410

Same assay, conditions: lowest concentration giving 50% inhibition of the MLR; 6 days coculture, 3H-thymidine incorporation

Compound | IC50 [nM]
Nc1nc(NCc2ccccc2)c2cc(-c3ccc(F)cc3)sc2n1 [Example 327, 2-amino-4-N-benzylamino-6-(4-fluorophenyl)-thieno[2,3-d]pyrimidine] | 6800
COCCCNc1nc(N)nc2sc(-c3ccc(F)cc3)nc12 [Example 32, 2-(4-fluorophenyl)-N-7-(3-methoxypropyl)thiazolo[5,4-d]pyrimidine-5,7-diamine] | > 10000
